One assay deals with BT474. Nature of the assay: Cytotoxicity assay (SRB), BT474. It is filed as cell-based. Summed up: (§1)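 Plate cells, let them attach overnight, add compound dilutions in RPMI 1640/5% FBS, and incubate 3 days (BT474 6 days). Then fix with TCA, stain with SRB, dissolve the dye in Tris and read at 540 nm.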
A further assay concerns the target T1, cyclin B/CDK1 enzyme (Homo sapiens, UniProt P06493).
T1 construct: purchased New England BioLabs; host or cells: Sf9 insect cells, recombinant baculovirus
Description: CDK1 ELISA kinase assay (phospho-Rb ser 795 detection). The settings on record: In Vitro Enzyme Assays, read-out: CDK1 IC50. It is filed as biochemical. A digest of the protocol:
(§2)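 Wells were coated overnight with GST-Rb C-terminal fragment, then blocked. Compound (10 ug/ml final) and cyclin/CDK enzyme from baculovirus-infected Sf9 cells with 200 μM ATP reacted 1 h at 30° C. Ser795 phosphorylation was detected by ELISA at 450 nm.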
For orientation: In an ELISA, binding on a coated surface is turned into a signal by an enzyme label.

A further assay has as its target T2, cyclin E/CDK2 enzyme (Homo sapiens, UniProt P24941).
T2 construct: made in house; host or cells: Sf9 insect cells, recombinant baculovirus
Nature of the assay: CDK2 ELISA kinase assay (phospho-Rb ser 795 detection). It is filed as biochemical. The conditions noted are these: In Vitro Enzyme Assays, read-out: CDK2 IC50. A digest of the protocol:
as §2

The next assay concerns HCT-116. Nature of the assay: Cytotoxicity assay (SRB), HCT-116. The settings on record: HCT116 cells, SRB, read-out: In Vitro Cellular Activity IC50 HCT116. Format: cell-based. Summed up: as §1
The subject of a further assay is LoVo. Nature of the assay: Cytotoxicity assay (SRB), LoVo. It is filed as cell-based. The settings on record: LoVo cells, SRB, read-out: In Vitro Cellular Activity IC50 LOVO. A digest of the protocol:
as §1

The next assay has as its system MCF-7. Nature of the assay: Cytotoxicity assay (SRB), MCF-7. Format: cell-based. The conditions noted are these: MCF-7 cells, SRB, read-out: In Vitro Cellular Activity IC50 MCF-7. A digest of the protocol:
as §1

Another assay concerns the target T3, cyclin D1/cdk 4 enzyme (Homo sapiens, UniProt P11802).
T3 construct: made in house; host or cells: Sf9 insect cells, recombinant baculovirus
Nature of the assay: CDK4 ELISA kinase assay (phospho-Rb ser 795 detection). It is filed as biochemical. The conditions noted are these: In Vitro Enzyme Assays, 200 μM ATP, read-out: CDK4 IC50. A digest of the protocol:
as §2

[1] abbreviates: Homo sapiens, BT-474, 144 h, BT474 cells, SRB, 6 days; read-out: In Vitro Cellular Activity IC50 BT474.
[2] abbreviates: Homo sapiens, HCT-116, 72 h, three days.
Setting [3] is: Homo sapiens, LoVo, 72 h, three days.
The mark [4] stands for this setting: Homo sapiens, MCF7, 72 h, three days.
[5] abbreviates: Homo sapiens, BT-474, 144 h, BT474 cells, 6 days, SRB; read-out: In Vitro Cellular Activity IC50 BT474.
Setting [6] is: Homo sapiens, HCT-116, 72 h, 3 days.
The mark [7] stands for this setting: Homo sapiens, LoVo, 72 h, 3 days.
Setting [8] is: Homo sapiens, MCF7, 72 h, 3 days.

Like-named read-outs stand apart in the source and are kept apart here. Some results are limits rather than exact numbers.

T1 sequence (P06493 whole entry): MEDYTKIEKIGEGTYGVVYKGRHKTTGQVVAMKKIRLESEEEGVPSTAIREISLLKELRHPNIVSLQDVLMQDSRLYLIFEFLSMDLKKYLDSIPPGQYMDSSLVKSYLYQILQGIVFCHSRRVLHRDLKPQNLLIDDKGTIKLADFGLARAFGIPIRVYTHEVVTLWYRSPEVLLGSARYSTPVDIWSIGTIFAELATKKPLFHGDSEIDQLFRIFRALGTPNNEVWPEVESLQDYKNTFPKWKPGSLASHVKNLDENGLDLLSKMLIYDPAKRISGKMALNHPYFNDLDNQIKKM
T1 sequence (P14635 whole entry partner): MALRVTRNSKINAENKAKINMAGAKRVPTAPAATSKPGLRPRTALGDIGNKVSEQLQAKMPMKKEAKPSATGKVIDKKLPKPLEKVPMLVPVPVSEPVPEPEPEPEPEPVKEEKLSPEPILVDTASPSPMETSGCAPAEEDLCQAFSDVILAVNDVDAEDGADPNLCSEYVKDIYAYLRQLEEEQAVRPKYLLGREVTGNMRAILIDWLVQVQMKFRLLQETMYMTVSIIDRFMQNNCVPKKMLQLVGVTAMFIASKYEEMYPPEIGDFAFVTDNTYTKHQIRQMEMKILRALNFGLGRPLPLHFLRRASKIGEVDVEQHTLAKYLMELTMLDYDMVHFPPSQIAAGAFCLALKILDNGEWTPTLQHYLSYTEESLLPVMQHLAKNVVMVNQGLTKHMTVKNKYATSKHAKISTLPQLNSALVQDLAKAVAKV
T3 sequence (P11802 whole entry, species assumed): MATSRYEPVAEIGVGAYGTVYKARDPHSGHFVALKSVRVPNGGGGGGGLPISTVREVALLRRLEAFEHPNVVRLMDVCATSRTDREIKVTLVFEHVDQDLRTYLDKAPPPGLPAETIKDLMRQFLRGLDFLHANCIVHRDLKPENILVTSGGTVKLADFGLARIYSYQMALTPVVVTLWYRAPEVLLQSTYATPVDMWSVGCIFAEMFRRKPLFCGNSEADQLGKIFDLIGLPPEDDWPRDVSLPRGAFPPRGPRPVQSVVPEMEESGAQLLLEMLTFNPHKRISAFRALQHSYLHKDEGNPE
T3 sequence (P24385 whole entry partner, species assumed): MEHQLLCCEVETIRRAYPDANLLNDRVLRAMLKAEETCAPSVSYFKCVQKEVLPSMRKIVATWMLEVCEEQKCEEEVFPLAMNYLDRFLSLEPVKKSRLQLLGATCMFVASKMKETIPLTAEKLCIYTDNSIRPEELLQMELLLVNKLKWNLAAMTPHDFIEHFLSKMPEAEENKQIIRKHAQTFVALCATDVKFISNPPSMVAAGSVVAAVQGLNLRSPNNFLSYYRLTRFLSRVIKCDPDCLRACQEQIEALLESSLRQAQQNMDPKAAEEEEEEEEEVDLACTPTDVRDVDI

The IC50 is the concentration at which inhibition is half-maximal. Consider `O=C1NC(=O)c2ccc(I)cc2/C1=C/Nc1ccc(CN2CCC[C@H]2CO)cc1` [Example 376, L-4-{[4-(2-Hydroxymethyl-pyrrolidin-1-ylmethyl)-phenylamino]-methylene}-6-iodo-4H-isoquinoline-1,3-dione], for which the IC50 is 0.37 µM in the assay on BT474 (setting [1]); more than 50 µM on cyclin B/CDK1 enzyme; more than 50 µM on cyclin E/CDK2 enzyme; 3.6 µM in the assay on HCT-116 (setting [2]); 2.6 µM in the assay on LoVo (setting [3]); 0.55 µM in the assay with MCF-7 (setting [4]). Also, at cyclin D1/cdk 4 enzyme, the IC50 turned out to be 0.43 µM.

For `O=C1NC(=O)c2ccc(I)cc2/C1=C/Nc1ccc(N2CCNCC2)cc1` [Example 378, (4Z)-6-Iodo-4-{[(4-piperazin-1-ylphenyl)amino]methylene}isoquinoline-1,3(2H,4H)-dione], the IC50 came out at 2.9 µM in the assay with BT474 (setting [1]); 20.4 µM at cyclin B/CDK1 enzyme; 15.4 µM on cyclin E/CDK2 enzyme; 1.5 µM with HCT-116 (setting [2]); 2.6 µM in the assay on LoVo (setting [3]); 1.1 µM with MCF-7 (setting [4]). Also, the IC50 at cyclin D1/cdk 4 enzyme is 0.65 µM.

For `CCCOc1ccc(CN/C=C2\C(=O)NC(=O)c3ccc(I)cc32)nc1Br` [Example 379, (Z)-4-(((6-Bromo-5-propoxypyridin-2-yl)methylamino)methylene)-6-iodoisoquinoline-1,3(2H,4H)-dione], the IC50 in the assay with BT474 (BT474 cells, SRB, 6 days; read-out: In Vitro Cellular Activity IC50 BT474) is 1.4 µM; on cyclin B/CDK1 enzyme it was more than 50 µM; at cyclin E/CDK2 enzyme, more than 50 µM; in the assay with HCT-116 (three days) it was 2.1 µM; with LoVo (three days) it was 2.6 µM; in the assay on MCF-7 (three days), 14 µM. Besides, the IC50 at cyclin D1/cdk 4 enzyme was 0.69 µM.

Consider `C/C=C/C(=O)Nc1ccc2c(c1)/C(=C/Nc1ccc(N3CCN(C)CC3)cc1)C(=O)NC2=O` [Example 384, (2E)-N-[(4Z)-4-({[4-(4-Methylpiperazin-1-yl)phenyl]amino}methylene)-1,3-dioxo-1,2,3,4-tetrahydroisoquinolin-6-yl]but-2-enamide], for which the IC50 is 26 µM in the assay on BT474 (setting [1]); 38.8 µM at cyclin B/CDK1 enzyme; more than 50 µM at cyclin E/CDK2 enzyme; 12 µM in the assay with HCT-116 (setting [2]); 19 µM with LoVo (setting [3]); 24 µM with MCF-7 (setting [4]). For the same compound, the IC50 on cyclin D1/cdk 4 enzyme is more than 50 µM.

Regarding `C=CC(=O)Nc1ccc2c(c1)/C(=C/Nc1ccc(N3CCN(C)CC3)cc1)C(=O)NC2=O` [Example 385, N-[(4Z)-4-({[4-(4-Methylpiperazin-1-yl)phenyl]amino}methylene)-1,3-dioxo-1,2,3,4-tetrahydroisoquinolin-6-yl]acrylamide], the IC50 stood at 0.39 µM in the assay on BT474 (setting [1]); 11.5 µM at cyclin B/CDK1 enzyme; 20.7 µM on cyclin E/CDK2 enzyme; 1.4 µM with HCT-116 (setting [2]); 3.5 µM in the assay on LoVo (setting [3]); 1.6 µM in the assay on MCF-7 (setting [4]). Moreover, the IC50 at cyclin D1/cdk 4 enzyme stood at 14.7 µM.

Turning to `CC(C)N1CCN(c2ccc(N/C=C3\C(=O)NC(=O)c4ccc(I)cc43)cc2)CC1` [Example 386, (4Z)-6-Iodo-4-({[4-(4-isopropylpiperazin-1-yl)phenyl]amino}methylene)isoquinoline-1,3(2H,4H)-dione], the 50% inhibitory concentration (IC50) with BT474 (setting [1]) is 7 µM; on cyclin B/CDK1 enzyme, more than 50 µM; on cyclin E/CDK2 enzyme, more than 50 µM; with HCT-116 (setting [2]) it was 2.6 µM; in the assay on LoVo (setting [3]), 6.5 µM; in the assay on MCF-7 (setting [4]), 2.2 µM. Moreover, the IC50 on cyclin D1/cdk 4 enzyme was determined as 0.6 µM.

As to `CN1CCC(N2CCN(c3ccc(N/C=C4\C(=O)NC(=O)c5ccc(I)cc54)cc3)CC2)CC1` [Example 387, (4Z)-6-Iodo-4-[({4-[4-(1-methylpiperidin-4-yl)piperazin-1-yl]phenyl}amino)methylene]isoquinoline-1,3(2H,4H)-dione], the IC50 in the assay on BT474 (setting [1]) was 25 µM; at cyclin B/CDK1 enzyme, more than 50 µM; on cyclin E/CDK2 enzyme it was more than 50 µM; in the assay with HCT-116 (setting [2]) it was 7.7 µM; with LoVo (setting [3]) it was 33 µM; in the assay with MCF-7 (setting [4]) it was 24 µM. Moreover, the IC50 at cyclin D1/cdk 4 enzyme stood at 0.9 µM.

Turning to `CCCN1CCN(c2ccc(N/C=C3\C(=O)NC(=O)c4ccc(I)cc43)cc2)CC1` [Example 388, (4Z)-6-Iodo-4-({[4-(4-propylpiperazin-1-yl)phenyl]amino}methylene)isoquinoline-1,3(2H,4H)-dione], the IC50 in the assay on BT474 (setting [1]) is 3.9 µM; on cyclin B/CDK1 enzyme, more than 50 µM; on cyclin E/CDK2 enzyme, more than 50 µM; in the assay on HCT-116 (setting [2]) it was 2.7 µM; in the assay on LoVo (setting [3]), 5.5 µM; in the assay with MCF-7 (setting [4]) it was 3.1 µM. For the same compound, at cyclin D1/cdk 4 enzyme, the IC50 turned out to be 2 µM.

As for `O=C1NC(=O)c2ccc(I)cc2/C1=C/Nc1ccc(N2CCN(Cc3ccco3)CC2)cc1` [Example 389, (4Z)-4-[({4-[4-(2-Furylmethyl)piperazin-1-yl]phenyl}amino)methylene]-6-iodoisoquinoline-1,3(2H,4H)-dione], the IC50 was more than 50 µM in the assay with BT474 (setting [1]); more than 50 µM on cyclin B/CDK1 enzyme; more than 50 µM at cyclin E/CDK2 enzyme; 23 µM in the assay with HCT-116 (setting [2]); more than 50 µM in the assay with LoVo (setting [3]); 29 µM in the assay with MCF-7 (setting [4]). On cyclin D1/cdk 4 enzyme, the IC50 came out at 1.66 µM.

As for `O=C1NC(=O)c2ccc(I)cc2/C1=C/Nc1ccc(N2CCN(Cc3ccoc3)CC2)cc1` [Example 390, (4Z)-4-[({4-[4-(3-Furylmethyl)piperazin-1-yl]phenyl}amino)methylene]-6-iodoisoquinoline-1,3(2H,4H)-dione], the IC50 in the assay on BT474 (setting [5]) was more than 50 µM; at cyclin B/CDK1 enzyme it was 1.45 µM; on cyclin E/CDK2 enzyme it was 19.3 µM; in the assay with HCT-116 (setting [6]), 17 µM; in the assay with LoVo (setting [7]), more than 50 µM; in the assay on MCF-7 (setting [8]), 22 µM. For the same compound, the IC50 at cyclin D1/cdk 4 enzyme came to 0.88 µM.

Turning to `O=C1NC(=O)c2ccc(I)cc2/C1=C/Nc1ccc(N2CCN(CC3CC3)CC2)cc1` [Example 391, (4Z)-4-[({4-[4-(Cyclopropylmethyl)piperazin-1-yl]phenyl}amino)methylene]-6-iodoisoquinoline-1,3(2H,4H)-dione], the IC50 in the assay with BT474 (setting [5]) is 3 µM; on cyclin B/CDK1 enzyme it was more than 50 µM; on cyclin E/CDK2 enzyme, more than 50 µM; with HCT-116 (setting [6]) it was 2.4 µM; in the assay on LoVo (setting [7]), 7.3 µM; with MCF-7 (setting [8]), 2.6 µM. Also, at cyclin D1/cdk 4 enzyme, the IC50 was 0.5 µM.

Consider `O=C1NC(=O)c2ccc(I)cc2/C1=C/Nc1ccc(N2CCN(C3CCC3)CC2)cc1` [Example 392, (4Z)-4-({[4-(4-Cyclobutylpiperazin-1-yl)phenyl]amino}methylene)-6-iodoisoquinoline-1,3(2H,4H)-dione], for which the IC50 in the assay with BT474 (setting [5]) is 3.8 µM; at cyclin B/CDK1 enzyme it was more than 50 µM; on cyclin E/CDK2 enzyme, 33.2 µM; with HCT-116 (setting [6]), 2.5 µM; in the assay with LoVo (setting [7]) it was 4.8 µM; with MCF-7 (setting [8]), 4.2 µM. Moreover, the IC50 on cyclin D1/cdk 4 enzyme stood at 0.69 µM.

In the case of `CCN1CCN(c2ccc(N/C=C3\C(=O)NC(=O)c4ccc(I)cc43)cc2)CC1` [Example 393, (4Z)-4-({[4-(4-Ethylpiperazin-1-yl)phenyl]amino}methylene)-6-iodoisoquinoline-1,3(2H,4H)-dione], the half-inhibitory concentration (IC50) is 5.9 µM in the assay on BT474 (setting [5]); more than 50 µM on cyclin B/CDK1 enzyme; more than 50 µM on cyclin E/CDK2 enzyme; 2.8 µM in the assay with HCT-116 (setting [6]); 6.8 µM in the assay on LoVo (setting [7]); 2.7 µM in the assay with MCF-7 (setting [8]). Also, at cyclin D1/cdk 4 enzyme, the IC50 is 0.47 µM.

For `CN1CCN(c2ccc(N/C=C3\C(=O)NC(=O)c4ccc(-c5ccsc5)cc43)cn2)CC1` [Example 396, (4Z)-4-({[6-(4-Methylpiperazin-1-yl)pyridin-3-yl]amino}methylene)-6-thien-3-ylisoquinoline-1,3(2H,4H)-dione], the IC50 in the assay with BT474 (setting [5]) was 2.8 µM; on cyclin B/CDK1 enzyme, more than 50 µM; at cyclin E/CDK2 enzyme, more than 50 µM; in the assay with HCT-116 (setting [6]), 1.4 µM; in the assay on LoVo (setting [7]) it was 3.1 µM; in the assay on MCF-7 (setting [8]), 3.8 µM. The IC50 at cyclin D1/cdk 4 enzyme stood at 0.02 µM.

On to `COC1CCN(Cc2ccc(N/C=C3\C(=O)NC(=O)c4ccc(Br)cc43)cc2)CC1` [Example 397, (4Z)-6-Bromo-4-[({4-[(4-methoxypiperidin-1-yl)methyl]phenyl}amino)methylene]isoquinoline-1,3(2H,4H)-dione], for which the IC50 in the assay with BT474 (setting [5]) was 6.18 µM; at cyclin B/CDK1 enzyme, more than 50 µM; at cyclin E/CDK2 enzyme, more than 50 µM; in the assay with HCT-116 (setting [6]) it was 2.8 µM; in the assay on LoVo (setting [7]) it was 4.3 µM; in the assay with MCF-7 (setting [8]) it was 3.6 µM. Further, the IC50 at cyclin D1/cdk 4 enzyme is 0.19 µM.
